Entries after “also recorded” stand apart in the source; their conditions may differ.

The values below come from patent US20160077107A1, “PERSONALISED MEDICINE” (STICHTING KATHOLIEKE UNIVERSITEIT, priority 2013, published 2016).

In assay [1] the test system is IL-1β production by human PBMCs. Put plainly: IL-1β production by human PBMCs stimulated with PRR ligands with or without caspase-1 inhibitor (ELISA). Type of assay: cell-based. As to conditions: 24 h stimulation, 50 healthy donors. For orientation: An ELISA detects its analyte on a solid surface through an enzyme-linked reagent.
Assay [2] has as its system IL-1β production of PBMCs from gout patients. As to conditions: MSU or C16.0 alone; cited from earlier work.

Take `CC(=O)N[C@H]1C(O)O[C@H](CO)[C@@H](O)[C@@H]1O[C@H](C)C(=O)N[C@@H](C)C(=O)N[C@H](CCC(=O)O)C(N)=O` (mixture of isomers) [MDP, Muramyl dipeptide]: the “induction of IL-1β production by human PBMCs” value (“induction of IL-1β production” below) in assay [1] was “strong inducers; also recorded: weak inducer”. For `CCCCCCCCCCCCCCCC(=O)O` [C16.0, Palmitic acid], in assay [2], the “release of IL-1β by the single component alone” value is on record as “neither does”. For Flagellin, in assay [1], the “induction of IL-1β production” value is on record as “weak inducer”.

With Pam3cys, in assay [1], the “induction of IL-1β production” value was “strong inducers”.
